Counter-ions that a name gives are not always drawn.

In the case of `CCCc1nc2c(N)nc(C)c(C)c2n1CCCCS(N)(=O)=O` [Example 31, 4-(4-Amino-6,7-dimethyl-2-propyl-1H-imidazo[4,5-c]pyridin-1-yl)butane-1-sulfonamide], the melting point (commonly the temperature of the solid-liquid transition) was 167 to 169 °C.

Compound `CCOCc1nc2c(N)nc3ccccc3c2n1CCCCS(=O)(=O)N1CCCCC1` [Example 12, 2-Ethoxymethyl-1-[4-(piperidine-1-sulfonyl)butyl]-1H-imidazo[4,5-c]quinoline-4-amine] returned a melting point of 185 to 188 °C. As for `CCOCc1nc2c(N)nc(C)c(C)c2n1CCCCS(=O)(=O)N(C)C` [Example 28, N,N-Dimethyl 4-(4-Amino-6,7-dimethyl-2-ethoxymethyl-1H-imidazo[4,5-c]pyridin-1-yl)butane-1-sulfonamide], the melting point lay in the range of 158 to 160 °C. The value for `CCOCc1nc2c(N)nc(C)c(C)c2n1CCCCS(N)(=O)=O` [Example 35, 4-(4-Amino-2-ethoxymethyl-6,7-dimethyl-1H-imidazo[4,5-c]pyridin-1-yl)butane-1-sulfonamide] was 200 to 201.5 °C.

`CCOCc1nc2c(N)nc3ccccc3c2n1CC(C)(C)CS(N)(=O)=O` [Example 42, 3-[4-Amino-2-(ethoxymethyl)-1H-imidazo[4,5-c]quinolin-1-yl]-2,2-dimethylpropane-1-sulfonamide]: the melting point was 229 to 231 °C. In turn, `CCOCc1nc2c(N)nc3c(c2n1CCCCS(N)(=O)=O)CCCC3` [Example 24, 4-(4-Amino-2-ethoxymethyl-6,7,8,9-tetrahydro-1H-imidazo[4,5-c]quinolin-1-yl)butane-1-sulfonamide] returned a melting point of 224 to 227 °C. Take `CCc1nc2c(N)nc3ccccc3c2n1CCCS(=O)(=O)NC` [Example 1, N-Methyl 3-(4-amino-2-ethyl-1H-imidazo[4,5-c]quinolin-1-yl)propane-1-sulfonamide]: the melting point lay within 225 to 228 °C. `CCOCc1nc2c(N)nc3ccccc3c2n1CCCCS(=O)(=O)NC1CCCCC1` [Example 13, N-Cyclohexyl 4-(4-amino-2-ethoxymethyl-1H-imidazo[4,5-c]quinolin-1-yl)butane-1-sulfonamide]: the melting point is 197 to 198 °C. Compound `CCOCc1nc2c(N)nc3ccccc3c2n1CCCCCS(=O)(=O)NC` [Example 16, N-Methyl 5-(4-amino-2-ethoxymethyl-1H-imidazo[4,5-c]quinolin-1-yl)pentane-1-sulfonamide] displayed a melting point of 175 to 179 °C.

Compound `CCOCc1nc2c(N)nc3c(c2n1CCCCS(=O)(=O)N(C)C)CCCC3` [Example 19, N,N-Dimethyl 4-(4-amino-2-ethoxymethyl-6,7,8,9-tetrahydro-1H-imidazo[4,5-c]quinolin-1-yl)butane-1-sulfonamide] showed a melting point of 165 to 167 °C. For `CCc1nc2c(N)nc3c(c2n1CCCCS(=O)(=O)NC)CCCC3` [Example 39, N-Methyl 4-(4-amino-2-ethyl-6,7,8,9-tetrahydro-1H-imidazo[4,5-c]quinolin-1-yl)butane-1-sulfonamide], the melting point was in the range of 166 to 170 °C. `CCOCc1nc2c(N)nc3ccccc3c2n1CCCCCS(=O)(=O)NCc1ccc(OC)cc1` [Example 22, N-(4-Methoxybenzyl) 5-(4-amino-2-ethoxymethyl-1H-imidazo[4,5-c]quinolin-1-yl)pentane-1-sulfonamide] came in with a melting point of 177 to 178 °C. Compound `CCc1nc2c(N)nc3ccccc3c2n1CCCCS(N)(=O)=O` (as salt: trifluoroacetate) [Example 6, 4-(4-Amino-2-ethyl-1H-imidazo[4,5-c]quinolin-1-yl)butane-1-sulfonamide] showed a melting point of 225 to 227 °C.

Consider `CCc1nc2c(N)nc3ccccc3c2n1CCCS(=O)(=O)N(C)C` [Example 2, N,N-Dimethyl 3-(4-amino-2-ethyl-1H-imidazo[4,5-c]quinolin-1-yl)propane-1-sulfonamide], for which the melting point fell in the range of 209 to 211 °C.
